Residues, ends and D or L forms follow the SMILES beside them. *: point of attachment. X1 = O=C1CCC[C@@H](C(=O)*)N1
System: cytoblastic medulla cells
Assay: 51Cr-emission test (in vitro toxicity)
Assay type: cell-based, rat
Procedure: The in vitro toxicity of the new compound was examined by ^51 Cr emission test.
6×10^7 cytoblastic medulla cells to be labelled were centrifuged (1000 rotations/minute for 7 minutes), then the cells were suspended in 1 ml of TC-199 Parker medium (product of OKI) and incubated with ^51 Cr ray source of an activity of 3.7×10^7 Bq (1 mCi) at a temperature of 37° C. for 1 hour, then the labelled cells were washed with 60 ml of medium. When the evaluation was carried out, the cell suspension was centrifuged after the treatment with the oligopeptide and the radioactivity of the supernatant was measured.
When the ^51 Cr emission test was evaluated, the cell suspension was treated with the oligopeptide and centrifuged, then the activity of the supernatant was determined by a Packard apparatus.

O=C(O)CC[C@H](NC(=O)[C@@H]1CCCC(=O)N1)C(=O)N[C@@H](CC(=O)O)C(=O)N[C@@H](CO)C(=O)NCC(=O)O [pAad-EI, Xaa Glu Asp Ser Gly] (X1-EDSG-OH)
51Cr-emission of cytoblastic medulla cells, cpm (concentration = 10^-8 mole/l, control 155,849): 148,303 cpm | toxicity by 51Cr emission (in words) (isotope emission compared to the control): not toxic
